The subject of test [1] is corpus cavernosal strips (CCS). The test is described as follows: cAMP levels in isolated CCS (penile organ culture) in response to adenosine. It is filed as cell-based, mouse. The method, then: FIG. 17. A2BR signaling is required for adenosine-mediated corpus cavernosal strips (CCS) relaxation. (a) CCS of wild type mice were treated with different concentrations of theophiline (1-10 μM) in the presence or absence of adenosine (100 μM). The force changes were measured by force transducer. Data are expressed as mean±SE. *p<0.05, adenosine treated versus the control, **p<0.05, theophiline treated versus the untreated, N=5. (b) CCS from wild type, A2AR, A1R A2BR and A3R-deficient mice were treated with different concentrations of adenosine. The relaxation was measured by force transducer. Data are expressed as mean±SE. *p<0.05, adenosine treated versus the wild type. […] 10 min after treatment, cellular extracts were collected and cAMP levels were measured by using a commercial enzyme immunoassay kit (Amersham Pharmacia). Data are expressed as mean±SE. *p<0.05, adenosine treated versus the control without treatment; **p<0.05, adenosine treated with MRS1706 versus the adenosine treated alone; ***p<0.05, CCS of A2BR-deficient mice treated with adenosine versus the CCS of wild type mice treated with adenosine. […]
In vitro corpus cavernosum tissue culture. […] Subsequently cavernosal strips were removed at and immediately frozen in liquid nitrogen for phosphorylation of myosin light chain determined by western blot analysis (see below). […]
A general note: cAMP levels reflect the balance of adenylyl cyclase and phosphodiesterase activity.

Test [2] has as its system corpus cavernosal strips (CCS). The test is described as follows: EFS-induced relaxation of CCS of SCD transgenic mice and controls. Format: cell-based, mouse. How it is done: FIG. 21. Priapic activity seen in SCD transgenic mice is dependent on elevated adenosine in penis via A2BR signaling. (a) Adenosine levels in the penis increased in SCD transgenic mice. Perchloric acid extracts of penile tissues from SCD transgenic mice and control mice were analyzed by HPLC to determine the levels of adenosine. The data are expressed as mean±SE. *p<0.005, (control n=5 and SCD transgenic mice n=6), SCD transgenic mice versus the controls. (b) Increased corpus cavernosum strips (CCS) relaxation by electrical field stimulation (EFS) in SCD transgenic mice. Relaxation effect of EFS with different voltages (0-30V) at 30 Hz and 0.5 ms pulse width, alternating polarity between pulses, in 10 μM phenylephrine-precontracted CCS from the controls (n=5) and SCD transgenic mice (n=5). (c-e) Prolonged penile erection seen in SCD transgenic mice is due to high levels of adenosine in the penis via A2BR signaling. Average EFS-induced relaxation from the PE-precontracted CC strips of the controls and SCD transgenic mice treated without or with PEG-ADA, MRS1706 or ZM241389. EFS-induced force change (c), duration of relaxation by EFS (d) and area under basal line (e) were representative of the CCS relaxation. (n=5 for the controls and n=5 for SCD transgenic mice with or without PEG-ADA, MRS1706 or ZM241389 treatment, respectively). Data are given as means±SE. *p<0.05, SCD transgenic mice versus the controls, **p<0.05, CCS of […] with PEG-ADA, MRS1706 or ZM241389 treatment versus CCS of SCD transgenic mice without treatment; ***p<0.05, CCS of the control mice with MRS1706 and/or L-NAME treatment versus CCS of the control mice without treatment.
Sickle cell disease (SCD) transgenic mice, expressing exclusively human sickle hemoglobin, were also used. These mice were age-matched, adult male homozygotes [SS^−/−, consisting of a transgene and two targeted gene deletions: (Tg (Hu-miniLCR alpha 1G gamma A gamma delta beta s) Hba0//Hba0 Hbb0//Hbb00) and heterozygotes (SS^−/+, SS^−/− genotype except Hbb0//Hbb+), developed on a mixed-strain background (mouse strains FVB/N, 129, DBA/2, C57BL/6, Black Swiss)^94,95.
Function experiments. The tunica albuginea was cut longitudinally, starting at the most proximal point of the corpus cavernosum (CC) toward the penile shaft, and the erectile tissue was partially dissected free from the tunica. One strip of tissue (0.3×0.3×3 mm) was obtained from each corpus cavernosum. The contractility of each isolated corpus cavernosum smooth muscle cells (CCSM) strip was measured using an isometric force transducer (AD Instrument Inc., Georgia, Vt., USA). The strip was mounted in a thermostatically controlled tissue bath containing aerated PSS (mM: 119 NaCl, 4.7 KCl, 24 NaHCO 3, 1.2 KH2PO4, 2.5 CaCl2, 1.2 MgSO4, 0.023 EDTA, and 11 glucose; 5 ml volume, 95% O2 and 5% CO2, 37° C.) and stretched to a resting tension of 0.1 mN. The contractile responses of the strips were analysed by adding 10 μM phenylephrine to the bath, and force changes were recorded in response to drug application and to electrical field stimulation. The particular electrical field stimulation parameters of 0-30V, 30 HZ with a pulse width of approximately 0.5 ms, are commonly used in the mice. […] The changes of cAMP and cGMP contents in CC strips were subsequently measured by commercial enzyme immunoassay kit (Amersham Pharmacia) (see below).

Test [3] concerns multiple animal models, including humans. The settings on record: intracavernous injection, multiple animal models, including humans; cited from earlier work.
Where [4] appears, read: CCS of SCD transgenic mice versus untreated CCS.

In the case of `CCCn1c(=O)c2[nH]c(-c3ccc(OCC(=O)Nc4ccc(C(C)=O)cc4)cc3)nc2n(CCC)c1=O` [MRS1706], the “adenosine-mediated induction of cAMP was inhibited” value in test [1] (CCS, MRS1706 10 μM, L-NAME 100 μM) is “inhibited”. For the same compound, the “force, duration and area under baseline of EFS-induced relaxation” value is “reduced the force, duration and area under baseline” in test [2] (setting [4]); “decreased the force, duration and area under baseline” in test [2] (CCS of the controls).
On to `Nc1nc(NCCc2ccc(O)cc2)nc2nc(-c3ccco3)nn12` [ZM241385], for which the “force, duration and area under baseline of EFS-induced relaxation” value in test [2] (setting [4]) was “not”.
As to `Nc1ncnc2c1ncn2[C@@H]1O[C@H](CO)[C@@H](O)[C@H]1O` [adenosine], the cAMP levels result in test [1] (wild type penile organ culture, 10 min) was “induced cAMP levels in a dose-dependent manner”. In addition, the “tumescence and penile erection” value in test [3] was “resulted in tumescence and penile erection”.

These data come from US20100254965A1, “Adenosine Signaling in Diagnosis, Treatment, and Prevention of Priapism and Erectile Dysfunction” (BOARD OF REGENTS ,THE UNIVERSITY OF TEXAS SYSTEM, priority 2006, published 2010).
